According to PubChem BioAssay AID849 (SRMLSC, 2007):
The source made the active and inactive calls. No rule for the calls is given here.

Each molecule was assayed on Saccharomyces cerevisiae lifespan shortening, growth inhibition (assay: yeast lifespan shortening compounds, dose response (AID 849);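 also: yeast growth read as optical density after two days at 30 degrees C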).

SMILES | IC50
C/C(=N\Nc1ccc([N+](=O)[O-])cc1)c1ccc(N)cc1 | 40.2 µM
CC1(CCc2ccccc2)NC(=S)N(c2ccccc2)N1 (stereo not given) | 14.1 µM
Cc1nn2c(-c3ccco3)nnc2c2ccccc12 | 26.5 µM
COc1cccc(-n2nnnc2S(C)(=O)=O)c1 | 9.54 µM
Cc1ccc(O)c(-c2cc(-c3cccc(F)c3)n[nH]2)c1 | 19.3 µM
CC(C)c1ccc2c(c1)C1(NN=C(c3ccccc3)S1)C(=O)N2 (stereo not given) | 26.3 µM
O=S(=O)(Nc1ccc(-c2csc(-c3ccccc3)n2)cc1)c1ccc(F)cc1 | > 100 µM (inactive)
Cc1cc(C)c2c(N=NN3CCOCC3)[nH]nc2n1 | 19.9 µM
Fc1ccc(-c2ccc(-c3nn4c(-c5ccco5)nnc4s3)o2)cc1 | > 100 µM (inactive)
N/C(Cc1ccc(Cl)cc1)=N\OC(=O)c1cccc2ccccc12 | 41 µM
O=C(NC1CCCCC1)Sc1ccc(Cl)cc1 | > 100 µM (inactive)
COc1cc(-c2nc3ccc4ccccc4c3c3c2CCC3)ccc1O | > 100 µM (inactive)
CCCCNC(=S)NCc1ccc2c(c1)cc(C)n2C | > 100 µM (inactive)
Cc1ccc(/C=C2\C(=O)NC(=S)N(c3ccccc3F)C2=O)s1 | 13.9 µM
Cc1c2cc(O)c(=O)cc-2oc2cc(O)c(O)cc12 | 28.1 µM
Nc1ccc(SC(F)(F)F)cc1C(=O)c1ccccc1 | > 100 µM (inactive)
CCCCSc1nc(C)c(C(C)=O)cc1C#N | > 100 µM (inactive)
Cc1ccc2nc(-c3ccc(NS(=O)(=O)c4ccc(F)c(F)c4)cc3)sc2c1 | > 100 µM (inactive)
CN(O)/C=c1/ccc2c(n1)C(=O)C=CC=2 | 8.11 µM
c1ccc(-n2c(-c3ccco3)nnc2-c2ccco2)cc1 | > 100 µM (inactive)
CC1=C(C)/C(=N\OS(=O)(=O)c2ccccc2)C=CC1=O | 30.3 µM
Oc1ccc(COCc2ccccc2)c2cccnc12 | 6.43 µM
Cc1cc(C)c2c(N=NN(C)C)[nH]nc2n1 | 12.2 µM
Cc1cccc(N=Nc2ccc(O)c3ncccc23)c1 | 34.8 µM

SMILES | IC50
CCc1cccc(C)c1NC(=S)NCc1ccc2[nH]c(C)cc2c1 | 37.5 µM
O=C(O)c1ccc2c3c(ncnc13)-c1ccccc1C2=O | 1.5 µM
CC1CCCC2(C1)NC(=S)N(c1ccccc1)N2 (stereo not given) | 38.2 µM
CCCCc1oc2ccccc2c1C(=O)c1cc(I)c(OCCN(CC)CC)c(I)c1 | 7.79 µM
COc1ccc(NC(=O)C2CCCN2S(=O)(=O)c2cccc3cccnc23)c(OC)c1 (stereo not given) | 40.5 µM
CCSc1ncc(/C=N/Nc2ccc(Cl)cc2)n1C | 36.7 µM
O=C(O)CCn1cc(/C=C/C(=O)c2ccc(Cl)cc2)c(-c2ccc(Br)cc2)n1 | > 100 µM (inactive)
Cc1cccc(Nc2nc(-c3ccccn3)cs2)n1 | 20.3 µM
CCc1ccc2c(c1)C1(NN=C(c3ccccc3)S1)C(=O)N2 (stereo not given) | 24.6 µM
CCCS(=O)(=O)c1nnnn1-c1cccc(OC)c1 | 3.4 µM
COc1ccccc1-c1nnc(NC(=O)C(C)SC2=NCCS2)s1 (stereo not given) | > 100 µM (inactive)
CNC(=O)c1cc2c(ccc3ccccc32)oc1=N | 12.4 µM
COc1ccc(C(=O)N/N=C/c2sc3ccccc3c2O)cc1 | > 100 µM (inactive)
CCOc1cccc(-c2nnc3n2N=C(c2cc(OC)ccc2OC)CS3)c1 | > 100 µM (inactive)
Clc1ccc(COC(Cn2ccnc2)c2ccc(Cl)cc2Cl)c(Cl)c1 (stereo not given) | < 0.098 µM
CC1CCc2c(sc3nc(CN4CCOCC4)nc(Sc4ccccc4)c23)C1 (stereo not given) | > 100 µM (inactive)
c1ccc(-c2nc(-n3ccnc3)nc(-n3ccnc3)n2)cc1 | 34.3 µM
Nc1[nH]c(=O)ncc1F | 11.8 µM
NC(=O)c1sc2nc(-c3ccco3)ccc2c1N | > 100 µM (inactive)
Clc1ccc(CSC(Cn2ccnc2)c2ccc(Cl)cc2Cl)cc1 (stereo not given) | 0.528 µM
Cc1oc(-c2cccs2)nc1CS(=O)CC(=O)NC1CCCCCC1 (stereo not given) | > 100 µM (inactive)
COc1ccc2c(c1)[nH]c1c(Cl)ncnc12 | 29.9 µM
Cc1ccc(-c2cc(-c3ccccc3C)[nH]n2)c(O)c1 | 15.8 µM
O=c1oc2ccccc2c(N2CCCC2)c1CN1CCCC1 | > 100 µM (inactive)

SMILES | IC50
NC(=O)c1ccc(N=Cc2ccc([N+](=O)[O-])s2)cc1 | 7.91 µM
Cc1nn(-c2ccccc2)c2sc(C(=O)O)cc12 | 47.2 µM
Cc1ccc(C)c(/C=C/C(=O)c2ccccc(=O)c2O)c1 | 6.4 µM
c1ccc2c(c1)oc1c(N3CCOCC3)ncnc12 | 32.1 µM
c1ccc2nc3c(nc2c1)[nH]c1ccccc13 | 25 µM
O=C(O)c1cc2ccc3ccccc3c2oc1=O | 20.6 µM
CC(C)(C)n1nc(-c2ccc(Cl)cc2)c2c(N)ncnc21 | 20.7 µM
O=C(Oc1c(Cl)cc(Cl)c2cccnc12)c1cccs1 | 11.1 µM
O=c1c2ccccc2nc2c3ccccc3c3nncn3n12 | 49.9 µM
O=C(O)c1cc2c(s1)-c1ccccc1OC2 | 42.2 µM
N=c1n(CCN2CCOCC2)c2ccccc2n1CC(=O)c1ccc(Cl)c(Cl)c1 | > 100 µM (inactive)
Cc1sc2ncnc(N/N=C/c3ccccc3O)c2c1C | 42.2 µM
CCC(C)NC(=O)C1CCN(S(=O)(=O)c2cccc3cccnc23)CC1 (stereo not given) | > 100 µM (inactive)
COc1ccc2nc(/N=C(\N)NC(=O)Nc3ccccc3)nc(C)c2c1 | 50.4 µM
Cc1ccc(OC(=S)Nc2ccc(O)cc2)cc1 | 14 µM
Clc1ccc(N=c2ssnc2Cl)cc1 | 25.6 µM
CCC(=O)c1c(O)n(C2CCCCCC2)c(=O)[nH]c1=O | 23.4 µM
CCCc1cc(C(=O)NC2CCCCC2)no1 | > 100 µM (inactive)
CCCOC(=O)c1ccc(Oc2cn[nH]c2-c2ccc(OCC)cc2O)cc1 | > 100 µM (inactive)
CCC(C)/C(C)=N/NC(=O)c1ccc(COc2ccc(Cl)c(C)c2)cc1 (stereo not given) | 21.9 µM
O=C(CN1CCN(c2ncc(C(F)(F)F)cc2Cl)CC1)NCCNc1ncc(C(F)(F)F)cc1Cl | 42.5 µM
O=C1CC(N2CCN(c3nc4ccccc4s3)CC2)C(=O)N1Cc1cccs1 (stereo not given) | > 100 µM (inactive)
O=[N+]([O-])c1cccc(/C=N/n2cnnc2)c1O | 19.7 µM
CC(Oc1ccc2ccccc2c1)C(=O)NNC(=S)NC(=O)c1ccco1 (stereo not given) | 17.7 µM

SMILES | IC50
Oc1ccccc1NCC(O)Cn1ccc2ccccc21 (stereo not given) | > 100 µM (inactive)
O=c1cnn([C@@H]2O[C@H](CO)[C@@H](O)[C@H]2O)c(=O)[nH]1 | 13.7 µM
O=C(c1ccc(Cl)cc1)c1c[nH]c(C(=O)C(Cl)(Cl)Cl)c1 | 37.8 µM
O=C(NNC(=S)NC(=O)C12CC3CC(CC(C3)C1)C2)c1ccncc1 | 19.6 µM
O=c1c2cccc3c2c(nn1CN1CCOCC1)-c1ccccc1-3 | 23.5 µM
O=c1[nH]c(Nc2ccccc2)cc2ccccc12 | > 100 µM (inactive)
O=C(Nc1nc(-c2ccccn2)cs1)c1ccc(Cl)s1 | 2.85 µM
C=CCN1C(=O)/C(=C/c2cccs2)C(=O)NC1=S | 17.6 µM
O=c1c2ccccc2nc2sc3ccccc3n12 | 27.8 µM
CCCCC(=O)NNC(=S)NC(=O)CCC | 32.3 µM
CN1CCc2cc3c(c4c2[C@H]1[C@H](O)c1ccccc1-4)OCO3 | 35.4 µM
COc1cc(Br)cc(/C=N/c2ncn[nH]2)c1O | 28.8 µM
CCCCCC1CCC(C(=O)O)CC1 (stereo not given) | > 100 µM (inactive)
Nc1nonc1C(=O)NCCN=Cc1cc(Cc2ccccc2)cc(Br)c1O | > 100 µM (inactive)
FC(F)Sc1ccc(Nc2ncnc3nc[nH]c23)cc1 | > 100 µM (inactive)
O=C(COc1ccccc1)N1CCN=C1SCc1cccnc1 | > 100 µM (inactive)
CCCCCC/C(C)=C1/SC(=S)NC1=O | > 100 µM (inactive)
CC1=C(C)CC2C(=O)N(c3cccc4ccccc34)C(=O)C2C1 (stereo not given) | > 100 µM (inactive)
Cc1csc(NC(=O)Cc2coc3cc(C)c(C(C)C)cc23)n1 | > 100 µM (inactive)
N#C/C(=C/c1cn(-c2ccccc2)nc1-c1cccc(OCc2ccc(F)cc2)c1)C(=O)NCCCn1ccnc1 | > 100 µM (inactive)
Cc1cccc(C(=O)Oc2csc(=S)n2C(=O)c2cccc(C)c2)c1 | > 100 µM (inactive)
CCN1/C(=C/c2ccc3ccc(C)cc3[n+]2CC)Sc2ccccc21 | 21.4 µM
O=C(c1ccc(C(=O)N2CCCc3ccccc32)s1)N1CCCc2ccccc21 | 35.6 µM
O=C(CSC1=NCCS1)N1CCN(c2ccc(Cl)cc2)CC1 | > 100 µM (inactive)

SMILES | IC50
CN(C)c1ccc(/C=C/c2ccc3ccccc3[n+]2C)cc1 | 26.4 µM
Cc1ccc(O)c(-c2cc(-c3ccccc3C)[nH]n2)c1 | 24.3 µM
Cc1nnc(NC(=O)CSc2nnc(Cc3cccn3C)n2-c2ccccc2)s1 | > 100 µM (inactive)
COc1ccc(Br)cc1C1CC(=O)N2CN(C)CSC2=C1C#N (stereo not given) | > 100 µM (inactive)
O=c1c(-c2ccccc2)nc(-c2ccccc2)cn1O | 15.1 µM
Cc1cccc(CSc2cccc3cccnc23)c1 | 33.1 µM
O=C(O)c1ccccc1Nc1ccc([N+](=O)[O-])cc1 | 10.8 µM
Cn1cccc1Cc1nnc(SCC(=O)Nc2nccs2)n1CCc1ccccc1 | > 100 µM (inactive)
CCCC(=O)NC(c1cccs1)c1cc([N+](=O)[O-])c2cccnc2c1O (stereo not given) | 16.6 µM
CCOc1cc(C2CC(=O)N3CN(C4CCCCC4)CSC3=C2C#N)ccc1O (stereo not given) | > 100 µM (inactive)
O=C(Nc1cccc(C(F)(F)F)c1)C(Sc1cccc[n+]1[O-])c1ccccc1 (stereo not given) | 21.5 µM
CC1=NNC(=O)/C1=C\c1cn(-c2ccccc2)nc1-c1cccs1 | 36.1 µM
Cc1cc2c(cc(C(=O)O)n2C)s1 | 36.5 µM
O=[N+]([O-])c1ccc(Cl)c(S(=O)(=O)N2CCCCCC2)c1 | 37.4 µM
Cc1c(C=O)c2ccccn2c1C(=O)c1ccncc1 | > 100 µM (inactive)
O=C(CCCSc1ccccc1)Nc1nc(-c2ccccn2)cs1 | 50.5 µM
O=C1c2cccc3c(Cl)ccc(c23)C(=O)N1O | 21.7 µM
Cc1ccc(-c2nc(N)sc2-c2ccccc2)cc1C | > 100 µM (inactive)
C/C(=N\NC(=O)c1ccc(CSc2cccc3cccnc23)cc1)C1CCCCC1 | 33.8 µM
CCOC(=O)C(=NCCCN(C)C)NNc1ccc(Br)cc1 | 11.1 µM
Cc1cc(OCc2ccc(C(=O)NN=C3CCCC3)cc2)ccc1Cl | 43.6 µM
Clc1ccc(N/N=C/c2ccncc2)cc1Cl | > 100 µM (inactive)
COCCN1CSC(=S)N(Cc2ccco2)C1 | 20.1 µM
CC1(C)CC(=NOC(=O)c2ccccc2)CC(C)(C)N1O | 8.22 µM
